Entries after “also recorded” stand apart in the source; their conditions may differ.
Assays:
KK^Ay mice [1] = experiment: Hepatic and muscle glycogen in KK^Ay mice (Example 3); assay type: in vivo; conditions: 2.0 mg/kg Sc, after 2 weeks, vs model group
Excerpt: (§1) 60 KK^Ay mice were adaptively bred for 1 week, and then randomly assigned into 6 groups: Model group, Compound (1) group, Compound (2) group, Compound (3) group, Compound (4) group, and metformin group, 10 mice per group. 10 normal C57BL/6 mice were used for the control group. KK^Ay mice were in a high-fat diet, and the control normal mice were in a normal control diet. The control and model groups were hypodermically injected with sterile water, the 6 medicated groups mice were subcutaneously injected with […] Wacao saponins, (Compounds (1), (2), (3) and (4)) respectively, and the positive group was administered metformin by gavage. All mice were administrated at 9 am for 2 weeks and the administration volume is 10 ml/kg BW.
(§2) The body weight, food and water intake of each mouse was measured and recorded weekly throughout the course of the experiment. At the end of the experiment, collected the blood and separated serum, fasting blood glucose, insulin levels and insulin sensitivity index (ISI) were measured or calculated in each group. Liver, skeletal muscles of mice in each group were taken and weighed for detecting glycogen levels of the hepatic and muscles after mice being killed.
(§3) Compound (1), (2), (3) and (4) were respectively dissolved into sterile water, and sterilized with filtration for Sc. to the medication groups. The metformin was dissolved into sterile water for lg. to the positive control group. Control and model groups animals were injected with sterile water (10 ml/kg BW), Sc. All the animals were treated daily at 9 am for 2 weeks (14 days).
(§4) Blood detection: Blood glucose was measured weekly. Overnight fasting glycemia level was measured with One Touch ULTRA Glucometer for the tail blood test. At the end of the experiment, blood serum was collected for measuring levels of fasting blood glucose and insulin, and the insulin sensitivity index (ISI) was calculated. At the same time, hepatic tissues and skeletal muscles of mice were taken out to determine levels of hepatic and muscle glycogen by detection kits.

KK^Ay mice [2] = experiment: Glycemia in KK^Ay mice during treatment and after withdrawal (Example 3); assay type: in vivo; conditions: for descending rates of blood glucose: T2DM mice, 2 mg/kg, two weeks after subcutaneous injection
Excerpt: (§5) 60 male KK^Ay mice (12 weeks of age, License NO. SCXK (BJ) 2009-0015, Beijing Huafukang Biology Technology Co. Ltd.) and 10 normal male C57BL/6 mice (12 weeks of age, License NO. SCXK (BJ) 2009-0015, Beijing Huafukang Biology Technology Co. Ltd.) were adaptively bred for one week, and then used in the following experiment.
as §1, §3, §4
Termination of the experiment After administrating mice for 2 weeks (14 days), the experiment was terminated.
This experiment is to observe the anti-hyperglycemia effects of Wacao saponins on KK^Ay mice during and after the period of drug treatment, respectively.

KK^Ay mice [3] = experiment: Effects of Wacao saponins on glycemia in KK^Ay T2DM mice (Example 2); assay type: in vivo; conditions: for glycemia (fasting tail blood glucose), hypoglycemic activity: after 1 week; for anti-hyperglycemia effect, compounds compared with each other: 2.0 mg/kg BW Sc, 2 weeks, ranking
Excerpt: 80 male KK^Ay mice (12 weeks of age, License NO. SCXK (BJ) 2009-0015, Beijing Huafukang Biology Technology Co. Ltd.) and 10 male normal C57BL/6 mice (12 weeks of age, License NO. SCXK (BJ) 2009-0015, Beijing Huafukang Biology Technology Co. Ltd.) were adaptively bred for one week, and then used in the pharmacological experiment.
The animals were housed individually in wood-chip-bedded plastic cages. Germ-free and high-fat diets (Beijing Huafukang Biology Technology Co. Ltd.) were used to feed the KK^Ay mice, and the standard laboratory chows were used to feed normal C57BL/6 mice. All the animals had free access to food and water.
80 KK^Ay mice were adaptively bred for 1 week, and then randomly assigned into 8 groups: Model group, Compound (1) group, Compound (2) group, Compound (3) group, Compound (4) group, Compound (7) group, Compound (8) group and metformin group, 10 mice per group. 10 normal C57BL/6 mice were used as the control group. KK^Ay mice were fed with the high-fat diet, and the control group was fed with the normal control diet. The control and model groups were hypodermically injected with sterile water, 6 medicated groups were hypodermically injected with 6 kinds of Wacao saponins, the Compounds (1), (2), (3), (4), (7) and (8), and the positive group (metformin group) was irrigated per oral. All groups were administrated at 9 am for 2 weeks. The administrating volume is 10 ml/kg BW and the administration dosage is shown in Table3.
All mice of the fasting tail blood glucose level were measured weekly using One Touch ULTRA Glucometer (Life Scan Johnson and Johnson, USA).
Each compound of Wacao saponins was dissolved into sterile water and sterilized with filtration for Sc. The metformin was dissolved into sterile water for lg. The control and model group mice were injected with sterile water, Sc. All the animals were treated at 9 am for 2 weeks.
Overnight fasting tail blood glucose level was measured weekly using One Touch ULTRA Glucometer and measured for twice.
Each group was administrated for 2 weeks (14 days) and then the experiment was terminated.
Results are expressed as means±SD. Statistical analysis were analyzed by using SPSS 10.0 software. Data were evaluated with analysis of variance.

KK^Ay mice [4] = experiment: Body weight, food and water intake in KK^Ay mice (Example 3); assay type: in vivo; conditions: after 1 week, compounds 2.0 mg/kg Sc, metformin 500 mg/kg lg, vs model group
Excerpt: as §5
The animals were housed individually in wood-chip-bedded plastic cages. Germ-free and high-fat diets (Beijing Huafukang Biology Technology Co. Ltd.) were used to feed the KK^Ay mice. All the animals had free access to food and water.
as §1, §2, §3
Measurement of food and water intake: 24 hours' food and water intake were measured by gravimetry once a week. It should be paid attention to recycling leakage of small forage into the feed box to ensure the accuracy of food intake.
Determination of body weight: The body weight of mice was measured and recorded once a week.
Results are shown as means±SD. Statistical analysis data were analyzed by using SPSS 10.0 software. Data were evaluated with analysis of variance.

T2DM rats [5] = experiment: Glycosylated serum protein (GSP) and liver and muscle glycogen in T2DM rats (Example 5); assay type: in vivo, SD rats; conditions: 4.0 mg/kg Sc vs glucobay 20 mg/kg lg
Excerpt: (§6) 50 SD rats were adaptively bred for 1 week, and then randomly assigned into 5 groups: The control group, model group, Compound (1) group, Compound (2) group and glucobay group (the positive group), 10 rats per group. All the animals were in a standard laboratory diet. Control and model group animals were hypodermically injected with sterile water, test compound treatment groups were subcutaneously injected with the Compounds (1) and (2), and the positive group was administrated glucobay solution by gavage. All the animals were administrated at 9 am for 2 weeks, and the dose volume is 10 ml/kg BW.
(§7) The Compounds (1) and (2) were dissolved into sterile water, and sterilized with filtration, Sc. Glucobay was dissolved into sterile water, lg. Animals in the control and model groups were injected with sterile water (10 ml/kg BW), Sc. All the animals were treated at 9 am for 2 weeks (14 days).
All rats except the control group were administrated intragastrically with the high-fat emulsion (10 ml/kg) and weighed the body weight weekly. After weeks of administration, rats were intraperitoneally injected with streptozotocin (STZ, dissolved in citric acid-citrate sodium solution, pH 4.2, freshly prepared and used instantly, and store away from light) (30mg/kg). 4 days later, blood glucose level in rats was measured by tail blood test. […]

T2DM rats [6] = experiment: Fasting glycemia in T2DM model rats (high-fat emulsion + STZ, Example 5); assay type: in vivo, SD rats
Excerpt: 50 male SD rats (180-200 g, License NO. SCXK (BJ) 2011-0004, Beijing SPF Experimental Animal Technology Co. Ltd.) were adaptively bred for 1 week, and then used in the pharmacological experiment.
Animals were housed individually in wood-chip-bedded plastic cages and fed a standard laboratory chow. All the animals had ad libitum access to food and water.
as §6, §7
All rats except the control group were administrated intragastrically with the high-fat emulsion (10 ml/kg) and weighed the body weight weekly. After weeks of administration, rats were intraperitoneally injected with streptozotocin (STZ, dissolved in citric acid-citrate sodium solution, pH 4.2, freshly prepared and used instantly, and store away from light) (30mg/kg). 4 days later, blood glucose level in rats was measured by tail blood test. Diabetes was defined as fasting blood glucose level>11.1 mmol/Lin in this experiment.
The blood glucose level was measured before and after administration of the treatment compounds for 2 weeks, respectively. The animals were fasted overnight and tail blood samples were taken. Fasting glycemia was measured by using One Touch ULTRA Glucometer or kits.

normal ICR mice = experiment: Glycemia in normal ICR mice (Example 4); assay type: in vivo; conditions: 2.0 mg/kg Sc, after 2 weeks, vs control group
Excerpt: 40 male ICR mice (20-22g, License NO. SCXK (BJ) 2011-0004, Beijing SPF Experimental Animal Technology Co. Ltd.) were adaptively bred for one week, and then used in the following experiment.
Animals were housed individually in wood-chip-bedded plastic cages and fed the standard laboratory chow. All the animals had ad libitum access to food and water.
40 ICR mice were adaptively bred for 1 week, and then randomly assigned into 4 groups: Model, Compound (1), Compound (2) and metformin group, 10 mice per group. All the animals were fed with normal food. Mice in the control group were hypodermically injected with sterile water. The treated groups were subcutaneously injected with Compounds (1) and (2), respectively. And the positive group was administrated metformin by gavage. All the animals were administrated at 9 am for 2 weeks, and the dose volume is 10 ml/kg BW.
Compound (1) and (2) were respectively dissolved into sterile water, and sterilized with filtration for Sc. The metformin was dissolved into sterile water for lg. to the positive control group. Mice in the control group were injected with sterile water (10 ml/kg BW), Sc. All the animals were treated at 9 am for 2 weeks (14 days).
Blood detection: Blood glucose was measured weekly. Overnight fasting glycemia was measured by One Touch ULTRA Glucometer (LifeScan Johnson and Johnson, USA) for the tail blood test.
End of the experiment: After mice being administrated for 2 weeks (14 days), the experiment was terminated.

[7] = 2.0 mg/kg BW Sc daily, vs model group

| Compound | muscle glycogen level (KK^Ay mice [1]) | descending rates of blood glucose (KK^Ay mice [2]) | glycemia (fasting tail blood glucose), hypoglycemic activity (KK^Ay mice [3]; [7]) | anti-hyperglycemia effect, compounds compared with each other (KK^Ay mice [3]) | further results |
| --- | --- | --- | --- | --- | --- |
| COC(=O)C1OC(O[C@H]2CC[C@]3(C)[C@H]4C=CC5[C@@H]6CC(C)(C)C[C@@H](C(=O)OC7OC(C)C(OC(=O)/C=C/c8ccc(C)cc8)C(OC(C)=O)C7OC7OC(C)C(O)C(O)C7O)C6[C@H](O)C[C@@]5(C)[C@]4(C)CC[C@H]3[C@]2(C)C=O)C(OC2CC(CO)C(O)C(O)C2O)C(OC2OCC(O)C(O)C2O)C1O (stereo partly shown) [Compound (3), sinocrassuloside VIII] | weaker efficacy in raising level of muscle glycogen which had no statistical significant difference compared with that of the model group | 60% | then followed by Compound (2), Compound (4), Compound (3) and Compound (7) | followed by Compound (3) and (4) (cis-trans-isomers), and Compound (7) |  |
| CN(C)C(=N)N=C(N)N [metformin, reference compound] |  |  |  |  | food intake (KK^Ay mice [4]): decreased obviously; glycemic level after drug withdrawal (KK^Ay mice [2]; KK^Ay mice, 2 weeks after stopping 2-week medication, vs model (untreated) group): rebounded to a high level which showed no significant difference compared with that of the model group |
| CC(=O)OC1C(OC(=O)/C=C\c2ccc(C)cc2)C(C)OC(OC(=O)[C@@H]2CC(C)(C)C[C@@H]3C2[C@H](O)C[C@]2(C)C3C=C[C@@H]3[C@@]4(C)CC[C@H](OC5OC(C(=O)O)C(O)C(OC6OCC(O)C(O)C6O)C5OC5OC(CO)C(O)C(O)C5O)[C@@](C)(C=O)[C@@H]4CC[C@]32C)C1OC1OC(C)C(O)C(O)C1O (stereo partly shown) [Compound (2), sinocrassuloside VII] | stronger efficacy in raising levels muscle glycogen | 60% | then followed by Compound (2), Compound (4), Compound (3) and Compound (7) | strongest anti-hyperglycemia effect | effect on glycogen levels and GSP levels compared with glucobay (T2DM rats [5]): better effect on up-regulating of glycogen levels and down-regulating of GSP levels; also recorded: superior to that of glucobay; also recorded: stronger than glucobay; anti-hyperglycemia efficacy compared with glucobay (T2DM rats [6]; 4.0 mg/kg Sc vs glucobay 20 mg/kg lg, 2 weeks): stronger than glucobay; glycemia level (T2DM rats [6]; 4.0 mg/kg Sc, after 2 weeks, vs model group): significantly decreased; glycemia level (normal ICR mice): decreased much obviously |
| sinocrassuloside XIII [Compound (8)] |  |  |  | no significant effect of anti-hyperglycemia compared with that of the other compounds | glycemia (fasting tail blood glucose), hypoglycemic activity (KK^Ay mice [3]; 2.0 mg/kg BW Sc daily, vs model group, 2 mg/kg): weakest hypoglycemic activity which has no significant difference compared with that of the model group; also recorded: only the trend of anti-hyperglycemia activity, but showed no statistical difference; glycemia (fasting tail blood glucose) (KK^Ay mice [3]; 2.0 mg/kg BW Sc daily, after 2 weeks, vs model group): Significant differences appeared |
| sinocrassuloside XII [Compound (7)] |  |  | then followed by Compound (2), Compound (4), Compound (3) and Compound (7) | followed by Compound (3) and (4) (cis-trans-isomers), and Compound (7) |  |
